Results from publication PMC3276500, “Caffeic Acid Phenethyl Ester and Its Amide Analogue Are Potent Inhibitors of Leukotriene Biosynthesis in Human Polymorphonuclear Leukocytes” (PLoS ONE, 2012).

Biological target: T1, 5-lipoxygenase (5-LO) (Homo sapiens, UniProt P09917)
T1 construct: gene ALOX5
T1 sequence (P09917 1-674): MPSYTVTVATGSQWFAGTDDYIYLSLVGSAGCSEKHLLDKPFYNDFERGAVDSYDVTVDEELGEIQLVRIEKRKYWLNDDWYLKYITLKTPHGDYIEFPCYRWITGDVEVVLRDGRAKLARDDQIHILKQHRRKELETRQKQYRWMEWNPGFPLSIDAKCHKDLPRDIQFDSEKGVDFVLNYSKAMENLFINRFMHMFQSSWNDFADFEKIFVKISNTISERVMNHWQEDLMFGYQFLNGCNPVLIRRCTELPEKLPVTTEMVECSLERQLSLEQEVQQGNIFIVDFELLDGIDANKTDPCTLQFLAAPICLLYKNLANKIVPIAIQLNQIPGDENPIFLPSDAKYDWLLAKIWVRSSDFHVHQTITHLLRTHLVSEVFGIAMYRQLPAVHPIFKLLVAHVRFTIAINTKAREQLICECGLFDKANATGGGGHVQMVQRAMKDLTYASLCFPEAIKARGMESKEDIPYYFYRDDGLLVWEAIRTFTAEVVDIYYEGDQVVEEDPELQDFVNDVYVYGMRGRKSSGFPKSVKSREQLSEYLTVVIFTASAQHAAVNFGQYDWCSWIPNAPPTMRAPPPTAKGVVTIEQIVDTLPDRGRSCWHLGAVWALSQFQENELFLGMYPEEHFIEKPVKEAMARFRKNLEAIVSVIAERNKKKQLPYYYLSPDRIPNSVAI
Assay: cell-free 5-LO activity assay in lysate supernatant of HEK293 cells stably transfected with 5-LO, RP-HPLC of products
Assay type: biochemical

| SMILES | IC50 [µM] |
| --- | --- |
| O=C(/C=C/c1ccc(O)c(O)c1)OCCc1ccccc1 [compound 1, CAPE] | 0.13 |
| O=C(/C=C/c1ccc(O)c(O)c1)NCCc1ccccc1 [compound 9] | 2.38 |
